Values after ≈ are worked out from the molar mass of the structure shown. Where two headings read alike, the source gives them in different places.
Tests used:
[1] = molecular target: hERG K+ channel (Homo sapiens, UniProt Q12809); assay: hERG-K^+ channel blocking effect
[2] = test system: E. coli NIHJ; assay: antibacterial activity (MIC), standard method of Japanese Society of Chemotherapy
[3] = test system: P. vulgaris, 08601; assay: as above
[4] = test system: S. marscecens, 10100; assay: as above
[5] = test system: P. aeruginosa, 32104; assay: as above
[6] = test system: P. aeruginosa, 32121; assay: as above
[7] = test system: S. aureus, 209P; assay: as above
[8] = test system: S. epidermidis, 56500; assay: as above
[9] = test system: E. faecalis, ATCC 19433; assay: as above
[10] = test system: S. aureus, 87037 (LVFX-resistant MRSA); assay: as above
[11] = test system: S. pneumoniae, J24 (penicillin-intermediate resistant bacteria); assay: as above
[12] = Proteus vulgaris, 08601, P. vulgaris
[13] = Staphylococcus epidermidis, 56500, S. epidermidis
[14] = Enterococcus faecalis, ATCC19433, E. faecalis
[15] = Staphylococcus aureus, MRSA, S. aureus, 87037 (LVFX-resistant MRSA)

hERG K+ channel, sequence (Q12809 whole entry): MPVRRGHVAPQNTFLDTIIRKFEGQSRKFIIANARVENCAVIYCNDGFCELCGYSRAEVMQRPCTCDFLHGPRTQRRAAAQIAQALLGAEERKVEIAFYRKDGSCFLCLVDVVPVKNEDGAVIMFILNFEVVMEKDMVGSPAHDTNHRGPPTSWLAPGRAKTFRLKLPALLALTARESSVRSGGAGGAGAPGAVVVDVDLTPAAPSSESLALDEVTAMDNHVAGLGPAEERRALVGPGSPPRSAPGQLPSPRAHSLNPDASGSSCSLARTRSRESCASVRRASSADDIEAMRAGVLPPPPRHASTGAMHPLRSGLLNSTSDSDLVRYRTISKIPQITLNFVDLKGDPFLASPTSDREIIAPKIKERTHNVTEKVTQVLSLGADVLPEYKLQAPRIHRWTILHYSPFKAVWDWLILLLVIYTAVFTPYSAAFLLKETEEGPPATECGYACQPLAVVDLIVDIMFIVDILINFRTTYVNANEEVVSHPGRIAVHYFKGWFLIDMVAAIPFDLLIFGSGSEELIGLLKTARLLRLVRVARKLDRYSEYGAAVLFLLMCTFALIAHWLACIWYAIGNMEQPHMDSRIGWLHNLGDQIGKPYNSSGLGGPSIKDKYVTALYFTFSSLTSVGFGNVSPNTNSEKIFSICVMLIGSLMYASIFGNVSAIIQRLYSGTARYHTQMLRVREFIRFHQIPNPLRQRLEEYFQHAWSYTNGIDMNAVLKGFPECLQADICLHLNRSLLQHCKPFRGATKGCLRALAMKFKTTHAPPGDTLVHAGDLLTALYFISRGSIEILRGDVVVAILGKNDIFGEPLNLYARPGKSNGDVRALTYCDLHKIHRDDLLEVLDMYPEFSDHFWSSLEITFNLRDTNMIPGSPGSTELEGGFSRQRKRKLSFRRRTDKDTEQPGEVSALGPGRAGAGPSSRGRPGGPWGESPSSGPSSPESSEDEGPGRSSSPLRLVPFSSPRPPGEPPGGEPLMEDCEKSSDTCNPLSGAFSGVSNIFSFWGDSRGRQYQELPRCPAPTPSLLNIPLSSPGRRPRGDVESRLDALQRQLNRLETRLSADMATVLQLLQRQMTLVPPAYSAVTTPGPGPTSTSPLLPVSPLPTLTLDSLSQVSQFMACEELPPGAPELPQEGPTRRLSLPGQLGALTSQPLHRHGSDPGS

COc1c(N2CC(CF)C(C)(N)C2)c(F)cc2c(=O)c(C(=O)O)cn([C@@H]3C[C@@H]3F)c12 (single isomer, unassigned) [Example 8, 7-[(3R*,4S*)-3-Amino-4-fluoromethyl-3-methylpyrrolidin-1-yl]-6-fluoro-1-[(1R,2S)-2-fluorocyclopropyl]-8-methoxy-1,4-dihydro-4-oxoguinoline-3-carboxylic acid]
melting point: 186 to 189 °C
inhibition at 30 µM [1]: 1.5 ± 1.8%
inhibition at 100 µM [1]: 2.1 ± 2.3%
inhibition at 300 µM [1]: 2.3 ± 7.3%
MIC ([2]; Escherichia coli): 0.012 µg/mL (≈ 0.0282 µM)
MIC [3, 12]: 0.025 µg/mL (≈ 0.0588 µM)
MIC [4]: 0.2 µg/mL (≈ 0.47 µM)
MIC ([5]; Pseudomonas aeruginosa): 0.78 µg/mL (≈ 1.83 µM)
MIC ([6]; Pseudomonas aeruginosa): 0.2 µg/mL (≈ 0.47 µM)
MIC ([7]; Staphylococcus aureus): 0.025 µg/mL (≈ 0.0588 µM)
MIC [8, 13]: 0.1 µg/mL (≈ 0.235 µM)
MIC [9, 14]: 0.2 µg/mL (≈ 0.47 µM)
MIC [10, 15]: 0.78 µg/mL (≈ 1.83 µM)
MIC ([11]; Streptococcus pneumoniae): 0.1 µg/mL (≈ 0.235 µM)

Cc1c(N2CC(F)[C@](C)(N)C2)c(F)cc2c(=O)c(C(=O)O)cn([C@@H]3C[C@@H]3F)c12 (single isomer, unassigned) [Example 27]
melting point: 215 to 217 °C
inhibition at 30 µM [1]: -1.8 ± 6.8%
inhibition at 100 µM [1]: 0.6 ± 8%
inhibition at 300 µM [1]: 8.9 ± 11%
MIC ([2]; Escherichia coli): 0.006 µg/mL (≈ 0.0152 µM)
MIC [3, 12]: 0.006 µg/mL (≈ 0.0152 µM)
MIC [4]: 0.1 µg/mL (≈ 0.253 µM)
MIC ([5]; Pseudomonas aeruginosa): 0.39 µg/mL (≈ 0.986 µM)
MIC ([6]; Pseudomonas aeruginosa): 0.1 µg/mL (≈ 0.253 µM)
MIC ([7]; Staphylococcus aureus): 0.012 µg/mL (≈ 0.0304 µM)
MIC [8, 13]: 0.05 µg/mL (≈ 0.126 µM)
MIC [9, 14]: 0.2 µg/mL (≈ 0.506 µM)
MIC [10, 15]: 0.39 µg/mL (≈ 0.986 µM)
MIC ([11]; Streptococcus pneumoniae): 0.1 µg/mL (≈ 0.253 µM)

COc1c(N2CC(C)(N)C3(CC3)C2)c(F)cc2c(=O)c(C(=O)O)cn([C@@H]3C[C@@H]3F)c12 (stereo partly drawn) [Example 10, 7-(7-Amino-7-methyl-5-azaspiro[2.4]heptan-5-yl)-6-fluoro-1-[(1R,2S)-2-fluorocyclopropyl]-8-methoxy-1,4-dihydro-4-oxoguinoline-3-carboxylic acid]
MIC ([2]; E. coli NIHJ): 0.025 µg/mL (≈ 0.0596 µM)
MIC ([3]; P. vulgaris): 0.05 µg/mL (≈ 0.119 µM)
MIC [4]: 0.2 µg/mL (≈ 0.477 µM)
MIC ([5]; P. aeruginosa): 0.39 µg/mL (≈ 0.93 µM)
MIC ([6]; P. aeruginosa): 0.2 µg/mL (≈ 0.477 µM)
MIC [7]: 0.05 µg/mL (≈ 0.119 µM)
MIC ([8]; S. epidermidis): 0.2 µg/mL (≈ 0.477 µM)
MIC ([9]; E. faecalis): 0.78 µg/mL (≈ 1.86 µM)
MIC ([10]; S. aureus, 87037 (LVFX-resistant MRSA)): 1.56 µg/mL (≈ 3.72 µM)
MIC [11]: 0.39 µg/mL (≈ 0.93 µM)

C=C1CN(c2c(F)cc3c(=O)c(C(=O)O)cn([C@@H]4C[C@@H]4F)c3c2OC)C[C@@]1(C)N [Example 15, 7-[(3S)-3-Amino-3-methyl-4-methylenepyrrolidine-1-yl]-6-fluoro-1-[(1R,2S)-2-fluorocyclopropyl]-8-methoxy-1,4-dihydro-4-oxoquinoline-3-carboxylic acid]
melting point: 100 to 102 °C
MIC ([2]; Escherichia coli): 0.012 µg/mL (≈ 0.0296 µM)
MIC [3, 12]: 0.025 µg/mL (≈ 0.0617 µM)
MIC [4]: 0.2 µg/mL (≈ 0.493 µM)
MIC ([5]; Pseudomonas aeruginosa): 0.39 µg/mL (≈ 0.962 µM)
MIC ([6]; Pseudomonas aeruginosa): 0.2 µg/mL (≈ 0.493 µM)
MIC ([7]; Staphylococcus aureus): 0.05 µg/mL (≈ 0.123 µM)
MIC [8, 13]: 0.1 µg/mL (≈ 0.247 µM)
MIC [9, 14]: 0.2 µg/mL (≈ 0.493 µM)
MIC [10, 15]: 0.78 µg/mL (≈ 1.92 µM)
MIC ([11]; Streptococcus pneumoniae): 0.1 µg/mL (≈ 0.247 µM)

C[C@H]1COc2c(N3CC(C)(N)C4(CC4)C3)c(F)cc3c(=O)c(C(=O)O)cn1c23 (stereo partly drawn) [Example 16, (3S)-10-(7-Amino-7-methyl-5-azaspiro[2.4]heptane-5-yl)-9-fluoro-2,3-dihydro-3-methyl-7-oxo-7H-pyrido[1,2,3-de][1,4]benzoxazine-6-carboxylic acid]
melting point: 268 to 270 °C
MIC ([2]; Escherichia coli): 0.012 µg/mL (≈ 0.031 µM)
MIC [3, 12]: 0.006 µg/mL (≈ 0.0155 µM)
MIC [4]: 0.1 µg/mL (≈ 0.258 µM)
MIC ([5]; Pseudomonas aeruginosa): 0.1 µg/mL (≈ 0.258 µM)
MIC ([6]; Pseudomonas aeruginosa): 0.05 µg/mL (≈ 0.129 µM)
MIC ([7]; Staphylococcus aureus): 0.025 µg/mL (≈ 0.0645 µM)
MIC [8, 13]: 0.1 µg/mL (≈ 0.258 µM)
MIC [9, 14]: 0.39 µg/mL (≈ 1.01 µM)
MIC [10, 15]: 3.13 µg/mL (≈ 8.08 µM)
MIC ([11]; Streptococcus pneumoniae): 0.2 µg/mL (≈ 0.516 µM)

C=C1CN(c2c(F)cc3c(=O)c(C(=O)O)cn([C@@H]4C[C@@H]4F)c3c2OC)C[C@]1(C)N [Example 17, 7-[(3R)-3-Amino-3-methyl-4-methylenepyrrolidine-1-yl]-6-fluoro-1-[(1R,2S)-2-fluorocyclopropyl]-8-methoxy-1,4-dihydro-4-oxoquinoline-3-carboxylic acid]
melting point: 236 to 239 °C (dec.)
MIC ([2]; Escherichia coli): 0.006 µg/mL (≈ 0.0148 µM)
MIC [3, 12]: 0.012 µg/mL (≈ 0.0296 µM)
MIC [4]: 0.1 µg/mL (≈ 0.247 µM)
MIC ([5]; Pseudomonas aeruginosa): 0.39 µg/mL (≈ 0.962 µM)
MIC ([6]; Pseudomonas aeruginosa): 0.1 µg/mL (≈ 0.247 µM)
MIC ([7]; Staphylococcus aureus): 0.025 µg/mL (≈ 0.0617 µM)
MIC [8, 13]: 0.1 µg/mL (≈ 0.247 µM)
MIC [9, 14]: 0.2 µg/mL (≈ 0.493 µM)
MIC [10, 15]: 0.39 µg/mL (≈ 0.962 µM)
MIC ([11]; Streptococcus pneumoniae): 0.1 µg/mL (≈ 0.247 µM)

COc1c(N2C[C@H](CF)[C@](C)(N)C2)c(F)cc2c(=O)c(C(=O)O)cn(C3CC3)c12 [Example 21, 7-[(3S,4S)-3-Amino-4-fluoromethyl-3-methylpyrrolidin-1-yl]-1-cyclopropyl-6-fluoro-8-methoxy-1,4-dihydro-4-oxoquinoline-3-carboxylic acid]
melting point: 226 to 229 °C
MIC ([2]; Escherichia coli): 0.012 µg/mL (≈ 0.0295 µM)
MIC [3, 12]: 0.05 µg/mL (≈ 0.123 µM)
MIC [4]: 0.2 µg/mL (≈ 0.491 µM)
MIC ([5]; Pseudomonas aeruginosa): 0.78 µg/mL (≈ 1.91 µM)
MIC ([6]; Pseudomonas aeruginosa): 0.2 µg/mL (≈ 0.491 µM)
MIC ([7]; Staphylococcus aureus): 0.025 µg/mL (≈ 0.0614 µM)
MIC [8, 13]: 0.1 µg/mL (≈ 0.245 µM)
MIC [9, 14]: 0.2 µg/mL (≈ 0.491 µM)
MIC [10, 15]: 0.78 µg/mL (≈ 1.91 µM)
MIC ([11]; Streptococcus pneumoniae): 0.1 µg/mL (≈ 0.245 µM)

Cc1c(N2CC3(CC3)[C@](C)(N)C2)ccc2c(=O)c(C(=O)O)cn([C@@H]3C[C@@H]3F)c12 [Example 29, 7-[(7S)-7-Amino-7-methyl-5-azaspiro[2.4]heptan-5-yl]-1-[(1R,2S)-2-fluorocyclopropyl]-8-methyl-1,4-dihydro-4-oxoquinoline-3-carboxylic acid]
melting point: 157 to 159 °C
MIC ([2]; Escherichia coli): 0.05 µg/mL (≈ 0.13 µM)
MIC [3, 12]: 0.025 µg/mL (≈ 0.0649 µM)
MIC [4]: 0.2 µg/mL (≈ 0.519 µM)
MIC ([5]; Pseudomonas aeruginosa): 0.2 µg/mL (≈ 0.519 µM)
MIC ([6]; Pseudomonas aeruginosa): 0.1 µg/mL (≈ 0.259 µM)
MIC ([7]; Staphylococcus aureus): 0.05 µg/mL (≈ 0.13 µM)
MIC [8, 13]: 0.2 µg/mL (≈ 0.519 µM)
MIC [9, 14]: 0.78 µg/mL (≈ 2.02 µM)
MIC [10, 15]: 3.13 µg/mL (≈ 8.12 µM)
MIC ([11]; Streptococcus pneumoniae): 0.39 µg/mL (≈ 1.01 µM)

Cc1c(N2CC3(CC3)[C@](C)(N)C2)ccc2c(=O)c(C(=O)O)cn(C3CC3)c12 [Example 30, 7-[(7S)-7-Amino-7-methyl-5-azaspiro[2.4]heptan-5-yl]-1-cyclopropyl-8-methyl-1,4-dihydro-4-oxoquinoline-3-carboxylic acid]
melting point: 227 to 230 °C
MIC ([2]; Escherichia coli): 0.006 µg/mL (≈ 0.0163 µM)
MIC [3, 12]: 0.025 µg/mL (≈ 0.068 µM)
MIC [4]: 0.1 µg/mL (≈ 0.272 µM)
MIC ([5]; Pseudomonas aeruginosa): 0.2 µg/mL (≈ 0.544 µM)
MIC ([6]; Pseudomonas aeruginosa): 0.05 µg/mL (≈ 0.136 µM)
MIC ([7]; Staphylococcus aureus): 0.05 µg/mL (≈ 0.136 µM)
MIC [8, 13]: 0.2 µg/mL (≈ 0.544 µM)
MIC [9, 14]: 0.39 µg/mL (≈ 1.06 µM)
MIC [10, 15]: 1.56 µg/mL (≈ 4.25 µM)
MIC ([11]; Streptococcus pneumoniae): 0.2 µg/mL (≈ 0.544 µM)

COc1c(N2CCNC(C)C2)c(F)cc2c(=O)c(C(=O)O)cn(C3CC3)c12 (stereo not shown) [GTFX, gatifloxacin, reference compound]
inhibition at 30 µM [1]: 8.1 ± 6%
inhibition at 100 µM [1]: 17.6 ± 11.5%
inhibition at 300 µM [1]: 39 ± 10.8%
MIC ([2]; Escherichia coli): 0.006 µg/mL (≈ 0.016 µM)
MIC [3, 12]: 0.006 µg/mL (≈ 0.016 µM)
MIC [4]: 0.1 µg/mL (≈ 0.266 µM)
MIC ([5]; Pseudomonas aeruginosa): 0.2 µg/mL (≈ 0.533 µM)
MIC ([6]; Pseudomonas aeruginosa): 0.1 µg/mL (≈ 0.266 µM)
MIC ([7]; Staphylococcus aureus): 0.05 µg/mL (≈ 0.133 µM)
MIC [8, 13]: 0.2 µg/mL (≈ 0.533 µM)
MIC [9, 14]: 0.39 µg/mL (≈ 1.04 µM)
MIC ([10]; Staphylococcus aureus, MRSA): 1.56 µg/mL (≈ 4.16 µM)
MIC ([11]; Streptococcus pneumoniae): 0.2 µg/mL (≈ 0.533 µM)

C[C@H]1COc2c(N3CCN(C)CC3)c(F)cc3c(=O)c(C(=O)O)cn1c23 [LVFX, levofloxacin, reference compound]
MIC ([2]; Escherichia coli): 0.012 µg/mL (≈ 0.0332 µM)
MIC [3, 12]: 0.012 µg/mL (≈ 0.0332 µM)
MIC [4]: 0.1 µg/mL (≈ 0.277 µM)
MIC ([5]; Pseudomonas aeruginosa): 0.2 µg/mL (≈ 0.553 µM)
MIC ([6]; Pseudomonas aeruginosa): 0.1 µg/mL (≈ 0.277 µM)
MIC ([7]; Staphylococcus aureus): 0.2 µg/mL (≈ 0.553 µM)
MIC [8, 13]: 0.39 µg/mL (≈ 1.08 µM)
MIC [9, 14]: 0.78 µg/mL (≈ 2.16 µM)
MIC [10, 15]: > 6.25 µg/mL
MIC ([11]; Streptococcus pneumoniae): 0.78 µg/mL (≈ 2.16 µM)

Reference: patent publication US7563805B2, “Tri-, tetra-substituted-3-aminopyrrolidine derivative” (Daiichi Pharmaceutical Co., Ltd., priority 2005, dated 2009)
